Results as given in US11866414B2, “Substituted heterocyclic compounds” (BRISTOL-MYERS SQUIBB COMPANY, priority 2021, dated 2024).
pIC50: −log10 of the molar value.

What was measured:
[1] = tested on: IFNα-induced STAT phosphorylation (pSTAT5); assay: IFNα-induced STAT phosphorylation in human whole blood; assay type: cell-based; details: 1 h compound, 1000 U/mL IFNα A/D 15 min, CD3 positive population, read-out: Human Whole blood IFNa pSTAT5 IC50
Experimental: IFNα-Induced STAT Phosphorylation in Human Whole Blood
After an hour long incubation with compound, human whole blood (drawn with ACD-A as anticoagulant) was stimulated with 1000 U/mL recombinant human IFNα A/D (R&D Systems 11200-2) for 15 min. The stimulation was stopped by adding Fix/Lyse buffer (BD 558049). Cells were stained with a CD3 FITC antibody (BD 555916), washed, and permeabilized on ice using Perm III buffer (BD 558050). Cells were then stained with an Alexa-Fluor 647 pSTAT5 (pY694) antibody (BD 612599) for 60 min prior to analysis on the iQue Plus. The amount of pSTAT5 expression was quantitated by median fluorescence intensity after gating on the CD3 positive population.

in vitro = details: human, Caco-2, pH 7.4

**Q.** Which results are given for `[2H]C([2H])([2H])NC(=O)c1nnc(NC(=O)[C@H]2C[C@@H]2C)cc1Nc1nccc(-c2cnn(C)n2)c1OC` [Example 42, 4-((3-methoxy-4-(2-methyl-2H-1,2,3-triazol-4-yl)pyridin-2-yl)amino)-N-(methyl-d3)-6-((1S,2S)-2-methylcyclopropane-1-carboxamido)pyridazine-3-carboxamide]?
**A.** pIC50 [1]: 7.30; Papp A→B at 2 h, 3 μM (in vitro): 28.7 ×10⁻⁶ cm/s; efflux ratio at 2 h, 3 μM (in vitro): 0.4

**Q.** What does the source list for `[2H]C([2H])([2H])NC(=O)c1nnc(NC(=O)[C@H]2C[C@H]2C)cc1Nc1cccc(-c2cnn(C)n2)c1OC` [Example 30, 4-((2-methoxy-3-(2-methyl-2H-1,2,3-triazol-4-yl)phenyl)amino)-N-(methyl-d3)-6-((1S,2R)-2-methylcyclopropane-1-carboxamido)-pyridazine-3-carboxamide]?
**A.** pIC50 [1]: 7.22; Papp A→B at 2 h, 3 μM (in vitro): 29.9 ×10⁻⁶ cm/s; efflux ratio at 2 h, 3 μM (in vitro): 0.7

**Q.** With `[2H]C([2H])([2H])NC(=O)c1nnc(Nc2ccccn2)cc1Nc1cccc(-c2cnn(C)n2)c1OC` [Example 8, 4-{[2-methoxy-3-(2-methyl-2H-1,2,3-triazol-4-yl)phenyl]amino}-N—(^2H3)methyl-6-[(pyridin-2-yl)amino]pyridazine-3-carboxamide] as the molecule, how does the pIC50 [1] read?
**A.** Its pIC50 is 6.64.

**Q.** What about the Papp A→B at 2 h, 3 μM (in vitro) of the same molecule?
**A.** Its Papp A→B at 2 h, 3 μM is 1.9 ×10⁻⁶ cm/s.

**Q.** And the efflux ratio at 2 h, 3 μM (in vitro)?
**A.** Its efflux ratio at 2 h, 3 μM is < 0.8.

**Q.** With `[2H]C([2H])([2H])NC(=O)c1nnc(NC(=O)[C@@H]2C[C@H]2C)cc1Nc1nc(C)cc(-c2cnn(C)n2)c1OC` [Example 47, 4-((3-methoxy-6-methyl-4-(2-methyl-2H-1,2,3-triazol-4-yl)pyridin-2-yl)amino)-N-(methyl-d3)-6-((1R,2R)-2-methylcyclopropane-1-carboxamido)pyridazine-3-carboxamide] as the molecule, how does the pIC50 [1] read?
**A.** The pIC50 was 6.96.

**Q.** What about the Papp A→B at 2 h, 3 μM (in vitro) of the same molecule?
**A.** The Papp A→B at 2 h, 3 μM was 34 ×10⁻⁶ cm/s.

**Q.** What about the efflux ratio at 2 h, 3 μM (in vitro) of the same molecule?
**A.** Its efflux ratio at 2 h, 3 μM is 0.3.

**Q.** What does the source list for `[2H]C([2H])([2H])NC(=O)c1nnc(NC(=O)C2CC2(C)C)cc1Nc1nccc(-c2cnn(C)n2)c1OC` (stereo not drawn) [Example 38, 6-(2,2-dimethylcyclopropane-1-carboxamido)-4-((3-methoxy-4-(2-methyl-2H-1,2,3-triazol-4-yl)pyridin-2-yl)amino)-N-(methyl-d3)pyridazine-3-carboxamide]?
**A.** pIC50 [1]: 6.36; Papp A→B at 2 h, 3 μM (in vitro): 33 ×10⁻⁶ cm/s; efflux ratio at 2 h, 3 μM (in vitro): 0.4

**Q.** What does the source list for `[2H]C([2H])([2H])NC(=O)c1nnc(NC(=O)C2CC2)cc1Nc1cc(F)c(C)c(-c2cnn(C)n2)c1OC` [Example 19, 6-(cyclopropanecarboxamido)-4-((5-fluoro-2-methoxy-4-methyl-3-(2-methyl-2H-1,2,3-triazol-4-yl)phenyl)amino)-N-(methyl-d3)pyridazine-3-carboxamide]?
**A.** pIC50 [1]: 6.37; Papp A→B at 2 h, 3 μM (in vitro): 18.8 ×10⁻⁶ cm/s; efflux ratio at 2 h, 3 μM (in vitro): 0.7

**Q.** With `[2H]C([2H])([2H])NC(=O)c1nnc(Nc2cc(C)n(C)n2)cc1Nc1cccc(-c2cnn(C)n2)c1OC` [Example 6, 6-[(1,5-dimethyl-1H-pyrazol-3-yl)amino]-4-{[2-methoxy-3-(2-methyl-2H-1,2,3-triazol-4-yl)phenyl]amino}-N—(^2H3)methylpyridazine-3-carboxamide] as the molecule, how does the pIC50 [1] read?
**A.** Its pIC50 is 7.70.

**Q.** And the Papp A→B at 2 h, 3 μM (in vitro)?
**A.** Its Papp A→B at 2 h, 3 μM is 7.4 ×10⁻⁶ cm/s.

**Q.** What about the efflux ratio at 2 h, 3 μM (in vitro) of the same molecule?
**A.** The efflux ratio at 2 h, 3 μM was 0.9.

**Q.** With `[2H]C([2H])([2H])NC(=O)c1nnc(N2CCN(C(C)C)C2=O)cc1Nc1cccc(-c2cnn(C)n2)c1OC` [Example 50, 6-(3-isopropyl-2-oxoimidazolidin-1-yl)-4-((2-methoxy-3-(2-methyl-2H-1,2,3-triazol-4-yl)phenyl)amino)-N-(methyl-d3)pyridazine-3-carboxamide] as the molecule, how does the pIC50 [1] read?
**A.** Its pIC50 is 6.77.

**Q.** And the Papp A→B at 2 h, 3 μM (in vitro)?
**A.** Its Papp A→B at 2 h, 3 μM is 26.5 ×10⁻⁶ cm/s.

**Q.** What about the efflux ratio at 2 h, 3 μM (in vitro) of the same molecule?
**A.** Its efflux ratio at 2 h, 3 μM is 0.4.

**Q.** Which results are given for `[2H]C([2H])([2H])NC(=O)c1nnc(NC(=O)C2CC2)cc1Nc1cccc(-c2nn(C)nc2C)c1OC` [Example 23, 6-(cyclopropane-carboxamido)-4-((3-(2,5-dimethyl-2H-1,2,3-triazol-4-yl)-2-methoxyphenyl)amino)-N-(methyl-d3)pyridazine-3-carboxamide]?
**A.** pIC50 [1]: 6.74; Papp A→B at 2 h, 3 μM (in vitro): 29.5 ×10⁻⁶ cm/s; efflux ratio at 2 h, 3 μM (in vitro): 1.2

**Q.** With `[2H]C([2H])([2H])NC(=O)c1nnc(Nc2ccc(N3CCOCC3)cn2)cc1Nc1nccc(-c2cnn(C)n2)c1OC` [Example 66, 4-{[3-methoxy-4-(2-methyl-2H-1,2,3-triazol-4-yl)pyridin-2-yl]amino}-N—(^2H3)methyl-6-{[5-(morpholin-4-yl)pyridin-2-yl]amino}pyridazine-3-carboxamide] as the molecule, how does the pIC50 [1] read?
**A.** Its pIC50 is 9.70.

**Q.** What about the Papp A→B at 2 h, 3 μM (in vitro) of the same molecule?
**A.** Its Papp A→B at 2 h, 3 μM is 22.2 ×10⁻⁶ cm/s.

**Q.** And the efflux ratio at 2 h, 3 μM (in vitro)?
**A.** Its efflux ratio at 2 h, 3 μM is 0.3.

**Q.** With `[2H]C([2H])([2H])NC(=O)c1nnc(NC(=O)N(C)C)cc1Nc1nccc(-c2cnn(C3CC3)n2)c1OC` [Example 61, 4-((4-(2-cyclopropyl-2H-1,2,3-triazol-4-yl)-3-methoxypyridin-2-yl)amino)-6-(3,3-dimethylureido)-N-(methyl-d3)pyridazine-3-carboxamide] as the molecule, how does the pIC50 [1] read?
**A.** The pIC50 was 6.32.

**Q.** What about the Papp A→B at 2 h, 3 μM (in vitro) of the same molecule?
**A.** Its Papp A→B at 2 h, 3 μM is 38.3 ×10⁻⁶ cm/s.

**Q.** And the efflux ratio at 2 h, 3 μM (in vitro)?
**A.** Its efflux ratio at 2 h, 3 μM is 0.4.

**Q.** Which results are given for `[2H]C([2H])([2H])NC(=O)c1nnc(NC(=O)[C@H]2C[C@H]2C)cc1Nc1nccc(-c2cnn(C)n2)c1OC` [Example 40, 4-((3-methoxy-4-(2-methyl-2H-1,2,3-triazol-4-yl)pyridin-2-yl)amino)-N-(methyl-d3)-6-((1S,2R)-2-methylcyclopropane-1-carboxamido)pyridazine-3-carboxamide]?
**A.** pIC50 [1]: 7.40; Papp A→B at 2 h, 3 μM (in vitro): 25.9 ×10⁻⁶ cm/s; efflux ratio at 2 h, 3 μM (in vitro): 0.8

**Q.** With `[2H]C([2H])([2H])NC(=O)c1nnc(Nc2cc(C)nc(C)n2)cc1Nc1nccc(-c2cnn(C)n2)c1OC` [Example 64, 6-[(2,6-dimethylpyrimidin-4-yl)amino]-4-{[3-methoxy-4-(2-methyl-2H-1,2,3-triazol-4-yl)pyridin-2-yl]amino}-N—(^2H3)methylpyridazine-3-carboxamide] as the molecule, how does the pIC50 [1] read?
**A.** Its pIC50 is 6.60.

**Q.** What about the Papp A→B at 2 h, 3 μM (in vitro) of the same molecule?
**A.** The Papp A→B at 2 h, 3 μM was 1.7 ×10⁻⁶ cm/s.

**Q.** And the efflux ratio at 2 h, 3 μM (in vitro)?
**A.** The efflux ratio at 2 h, 3 μM was < 0.9.

**Q.** With `[2H]C([2H])([2H])NC(=O)c1nnc(NC(=O)[C@@H]2C[C@@H]2C)cc1Nc1cccc(-c2cnn(C)n2)c1OC` [Example 26, 4-((2-methoxy-3-(2-methyl-2H-1,2,3-triazol-4-yl)phenyl)amino)-N-(methyl-d3)-6-((1R,2S)-2-methylcyclopropane-1-carboxamido)pyridazine-3-carboxamide] as the molecule, how does the pIC50 [1] read?
**A.** The pIC50 was 7.22.

**Q.** What about the Papp A→B at 2 h, 3 μM (in vitro) of the same molecule?
**A.** The Papp A→B at 2 h, 3 μM was 33.4 ×10⁻⁶ cm/s.

**Q.** And the efflux ratio at 2 h, 3 μM (in vitro)?
**A.** Its efflux ratio at 2 h, 3 μM is 0.6.

**Q.** Which results are given for `[2H]C([2H])([2H])NC(=O)c1nnc(Nc2ccccn2)cc1Nc1nccc(-c2cnn(C)n2)c1OC` [Example 63, 4-((3-methoxy-4-(2-methyl-2H-1,2,3-triazol-4-yl)pyridin-2-yl)amino)-N-(methyl-d3)-6-(pyridin-2-ylamino)pyridazine-3-carboxamide]?
**A.** pIC50 [1]: 7.70; Papp A→B at 2 h, 3 μM (in vitro): 3.9 ×10⁻⁶ cm/s; efflux ratio at 2 h, 3 μM (in vitro): < 0.4

**Q.** With `[2H]C([2H])([2H])NC(=O)c1nnc(NC(=O)C2CC2(F)F)cc1Nc1cccc(-c2cnn(C)n2)c1OC` (stereo not drawn) [Example 31, 6-(2,2-difluorocyclopropane-1-carboxamido)-4-((2-methoxy-3-(2-methyl-2H-1,2,3-triazol-4-yl)phenyl)amino)-N-(methyl-d3)pyridazine-3-carboxamide] as the molecule, how does the pIC50 [1] read?
**A.** The pIC50 was 6.96.

**Q.** And the Papp A→B at 2 h, 3 μM (in vitro)?
**A.** Its Papp A→B at 2 h, 3 μM is 31.3 ×10⁻⁶ cm/s.

**Q.** And the efflux ratio at 2 h, 3 μM (in vitro)?
**A.** The efflux ratio at 2 h, 3 μM was 0.8.
